# Test results from patent US20030091553A1 (priority 2001, published 2003).
# Like-named read-outs stand apart in the source and are kept apart here.
# Experiments:
# [1] = tested on: CD3+T-cells, CD3-/56+ NK-cells and CD3+/56+ NK/T-cells; conditions: all cell types; induced by autologous monocytes or granulocytes; p<0.001
# From the text: (§1) This example illustrates the effect of histamine on the lymphocytes isolated from human liver. […] All data are the mean±s.e.m. (n=15-30 blood donors).
# [2] = tested on: drug-induced liver damage; conditions: oral tablet with isoniazid, six to twelve months, versus isoniazid alone
# Description: An individual presenting with tuberculosis is prescribed an oral tablet comprising isoniazid and an effective dose of histamine for a period of six to twelve months. During the treatment period, the patient is monitored by a physician and lab tests to check the status of the patient's liver in response to the medication are performed.
# [3] = Effect of the duration of administration of histamine; conditions: administered over longer than about 30 minutes
# [4] = tested on: early alcohol-induced liver injury
# From the text: (§2) Animals and Treatments. Female Wistar rats weighing between 200 and 275 g were fed ad libitum continuously for up to 4 weeks a liquid diet (Dyets, Bethlehem, Pa. #710034) in which 35% of the calories were from corn oil, […], 5% were from vitamins and minerals, 11% were from maltose-dextrin, and 36% were from ethanol. An isocaloric maltose-dextrin diet (Dyets, #710270) was used for control. Rats were given a single dose of ethanol (5 g/kg body weight intragastrically) using an 18-gauge oral biomedical device (Popper & Sons, Inc., New Hyde Park, N.Y.) diluted in PBS (pH 7.2; GIBCO Laboratories Life Technologies Inc., Grand Island, N.Y.) every 24 hours. Control animals were gavaged with PBS alone. Either histamine dihydrochloride (0.5 mg/kg or 5.0 mg/kg; Sigma Chemical Co., St. Louis, Mo.) or vehicle (PBS, pH 7.4; GIBCO Laboratories Life Technologies Inc., Grand Island, N.Y.) was administered by subcutaneous injection twice daily for 4 weeks. Body weights of each rat were measured daily. Rats were housed in a pathogen-free facility and the institutional animal care and use committee approved the surgical procedures used in this study.
# [5] = both histamine treated groups versus ethanol alone treated group
# From the text: as §2
# [6] = tested on: early alcohol-induced liver injury; remark: listed apart in the source
# From the text: as §2
# Pathological Evaluation. After 2 and 4 weeks of ethanol treatment, livers were formalin fixed, embedded in paraffin, and stained with hematoxylin and eosin to assess steatosis, inflammation, and necrosis. Liver pathology was scored in a blinded manner by an outside expert as follows:
# 1. Degree of steatosis, score 0-4 (based on % of hepatocytes containing lipid)
# 2. Degree of inflammatory cell infiltration, score 0-4
# 3. Degree of degeneration and necrosis, score 0-4
# The points for each grade of histological evaluation were compiled into a total score for each liver.
# Severity scores for each finding in each group were summed and then divided by the number of animals evaluated per group. The groups were assigned scores as follows: None=0; […].
# [7] = tested on: drug-induced liver damage; conditions: daily oral dose of 10 mg, patient on phenytoin three times a day
# Description: An epileptic taking phenytoin three times a day to control seizures is supplemented with a daily oral dose of 10 mg of histamine dihydrochloride. Prior to supplementation with histamine dihydrochloride, the epileptic experiences liver damage as a consequence of taking phenytoin as confirmed by liver biopsy.
# NK-cells = conditions: 25 μM hydrogen peroxide, n=8, mean±s.e.m.
# From the text: as §1
# NK/T-cells = conditions: 25 μM hydrogen peroxide, n=8, mean±s.e.m.
# From the text: as §1
# T-cells = conditions: 25 μM hydrogen peroxide, n=8, mean±s.e.m.
# From the text: as §1
# [8] = tested on: hepatotoxic effect of comfrey; test: Catalase supplement in an individual consuming comfrey; format: in vivo, human; conditions: 8 mg/day
# Description: The common herb comfrey can be administered as a poultice or tea drink to as an expectorant, demulcent, and/or tonic. However, consumption of comfrey has been linked to liver damage. In order to minimize the hepatotoxic effect of comfrey, an individual consuming comfrey as an herbal remedy is supplemented with 8 mg/day of catalase.
# [9] = tested on: hepatic tissue damage secondary to pancreatitis; conditions: 100 μg/kg per day over one to two weeks, acute pancreatitis
# Description: A patient presenting with acute pancreatitis is identified. The patient is administered 100 μg/kg histamine diphosphate per day over a period of one to two weeks. A liver biopsy is performed upon resolution of the pancreatitis.
molecule,measurement,setting,value
"NCCc1c[nH]cn1 [Histamine, histamine]",apoptosis of lymphocytes,[1],significantly prevented
same,liver damage by laboratory tests,[2],no damage to the patient's liver
same,efficacy,[3],decreased or lack of efficacy
same,pathology scores and serum transaminase levels,[4]; 0.5 mg/kg or 5 mg/kg twice daily s.c.,normalization
same,ALT activity,"[4]; preliminary results, ethanol control group 2-3 fold increase",somewhat normal ALT activity
same,recovery of body weight,[5],recovered their body weights more quickly
same,liver injury,"[6]; 0.5 mg/kg or 5 mg/kg twice daily s.c., highest dose most effective",blunted liver injury in a dose dependent manner
same,"Histologic Findings in Liver, Mean Group Severity Scores, Total Overall Score","[6]; High Histamine (5.0 mg/kg s.c. twice daily), Week 2 of ethanol treatment",2.00
same,"Histologic Findings in Liver, Mean Group Severity Scores, Total Overall Score","[6]; High Histamine (5.0 mg/kg s.c. twice daily), Week 4 of ethanol treatment",2.57
same,"Histologic Findings in Liver, Mean Group Severity Scores, Total Overall Score","[6]; Low Histamine (0.5 mg/kg s.c. twice daily), Week 2 of ethanol treatment",3.33
same,"Histologic Findings in Liver, Mean Group Severity Scores, Total Overall Score","[6]; Low Histamine (0.5 mg/kg s.c. twice daily), Week 4 of ethanol treatment",3.17
same,appearance of excised livers,"[6]; histamine treated, ethanol-fed rats",comparative in appearance to livers from the non-ethanol treated group
Cl.Cl.NCCc1c[nH]cn1 [histamine dihydrochloride],liver damage,[7],further damage to the tissue of the liver is prevented
OO [hydrogen peroxide],cells that became apoptotic,NK-cells,65±7%
same,cells that became apoptotic,NK/T-cells,78±7%
same,cells that became apoptotic,T-cells,35±5%
catalase,hepatic injury,[8],No hepatic injury is observed
histamine diphosphate,damage to hepatic tissue (liver biopsy),[9],prevents damage to hepatic tissue
same,incidence of infection associated with pancreatitis,[9],lowers the incidence of infection associated with pancreatitis
